In patent publication US20080213356A1, “Pharmaceutical Composition Containing Hmg-Coa Reductase Inhibitor And Method For The Preparation Thereof” (PHARMATHEN S.A., priority 2005, published 2008):
Structures can show the parent of a compound that is named as a salt.

Assay: Flowability and compressibility, Carr's Index
Type: physicochemical
Conditions: pure pharmaceutical substance
Source text: However, when Dimethicone was incorporated according to the present invention, a decrease of 40-50% of the Carr Index was observed, which indicates an improvement of the flow properties of Fluvastatin and Atorvastatin and therefore the use of a direct compression for the final formulation.

Q: Which “mean Carr's Index” value does the source give for `CC(C)c1c(C(=O)Nc2ccccc2)c(-c2ccccc2)c(-c2ccc(F)cc2)n1CC[C@@H](O)C[C@@H](O)CC(=O)O` (relative stereo) [Atorvastatin, [R—(R*,R*)]-2-(4-fluorophenyl)-b,d-dihydroxy-5-(1-methylethyl)-3-phenyl-4 [(phenylamino)carbonyl]-1H-pyrrole-1-heptanoic acid, calcium salt (2:1) trihydrate] here?
A: 24-25%
